Results reported in US20230085307A1, “PYRIDAZINONE COMPOUND AND HERBICIDE” (NISSAN CHEMICAL CORPORATION, priority 2019, published 2023).

Columns and labels:
Chinese sprangletop = assay: Test Example 3: herbicidal effect by foliage application, Wagner pot (Table 18, symbol D); format: in vivo, chinese sprangletop (Leptochloa chinensis); details: 320 g/ha
Outline: (§1)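 Plants were sown in alluvial soil held under 0.1–0.5 cm standing water and grown 14 days in a greenhouse at 25–30 °C. An emulsifiable formulation, water-diluted to the set dose, was then sprayed onto the foliage, and effects were scored three weeks later using previously defined criteria.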

wild oat [1] = assay: Test Example 5: herbicidal effect by foliage application, plastic box (Table 20, symbol I); format: in vivo, wild oat (Avena fatua); details: foliage application, 320 g/ha, 3 weeks after application
Outline: (§2)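 Foliar spray test: emulsion formulation diluted in water to a set application rate, sprayed onto 14-day-old plants raised in diluvial soil at 25° C to 30° C under glass. Both herbicidal effect and crop effect rated visually three weeks later.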

blackgrass [2] = assay: Test Example 5: herbicidal effect by foliage application, plastic box (Table 20, symbol J); format: in vivo, blackgrass (Alopecurus myosuroides); details: foliage application, 320 g/ha, 3 weeks after application
Outline: as §2

velvetleaf [3] = assay: Test Example 5: herbicidal effect by foliage application, plastic box (Table 20, symbol M); format: in vivo, velvetleaf (Abutilon theophrasti); details: foliage application, 320 g/ha, 3 weeks after application
Outline: as §2

green foxtail [4] = assay: Test Example 5: herbicidal effect by foliage application, plastic box (Table 20, symbol G); format: in vivo, green foxtail (Setaria viridis); details: foliage application, 320 g/ha, 3 weeks after application
Outline: as §2

persian speedwell [5] = assay: Test Example 5: herbicidal effect by foliage application, plastic box (Table 20, symbol R); format: in vivo, Persian speedwell (Veronica persica); details: foliage application, 320 g/ha, 3 weeks after application
Outline: as §2

oval-leafed pondweed = assay: Test Example 1: herbicidal activity, application before weed generation under submerged conditions (Table 16, symbol C); format: in vivo, oval-leafed pondweed (Monochoria vaginalis); details: 320 g/ha applied herbicide
Outline: (§3)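 Emulsion formulation, water-diluted to set dose, was put onto the flooded surface (4 cm depth, alluvial soil) the same day weeds were sown and 2.5-leaf rice transplanted. After 3 weeks at 25-30 °C under glass, each species was rated 0 (≤5% kill) to 5 (≥90% kill).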

southern crabgrass [6] = assay: Test Example 4: herbicidal effect by soil treatment (Table 19, symbol F); format: in vivo, southern crabgrass (Digitaria ciliaris); details: 320 g/ha
Outline: (§4)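 Step 1: sow seeds in sterilized diluvial soil, cover ~1.5 cm. Step 2: spray diluted emulsion onto soil surface at predetermined rate. Step 3: greenhouse, 25–30° C, three weeks. Step 4: grade effect on each plant by earlier criteria.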

late watergrass = assay: Test Example 1: herbicidal activity, application before weed generation under submerged conditions (Table 16, symbol A); format: in vivo, late watergrass (Echinochloa oryzicola); details: 320 g/ha applied herbicide
Outline: as §3

lambsquarters [7] = assay: Test Example 4: herbicidal effect by soil treatment (Table 19, symbol O); format: in vivo, lambsquarters (Chenopodium album); details: 320 g/ha
Outline: as §4

windgrass [8] = assay: Test Example 4: herbicidal effect by soil treatment (Table 19, symbol L); format: in vivo, windgrass (Apera spica-venti); details: 320 g/ha
Outline: as §4

blackgrass [9] = assay: Test Example 4: herbicidal effect by soil treatment (Table 19, symbol J); format: in vivo, blackgrass (Alopecurus myosuroides); details: 320 g/ha
Outline: as §4

rice flat sedge = assay: Test Example 3: herbicidal effect by foliage application, Wagner pot (Table 18, symbol E); format: in vivo, rice flat sedge (Cyperus iria); details: 320 g/ha
Outline: as §1

Italian ryegrass [10] = assay: Test Example 4: herbicidal effect by soil treatment (Table 19, symbol K); format: in vivo, Italian ryegrass (Lolium multiflorum); details: 320 g/ha
Outline: as §4

southern crabgrass [11] = assay: Test Example 5: herbicidal effect by foliage application, plastic box (Table 20, symbol F); format: in vivo, southern crabgrass (Digitaria ciliaris); details: foliage application, 320 g/ha, 3 weeks after application
Outline: as §2

windgrass [12] = assay: Test Example 5: herbicidal effect by foliage application, plastic box (Table 20, symbol L); format: in vivo, windgrass (Apera spica-venti); details: foliage application, 320 g/ha, 3 weeks after application
Outline: as §2

velvetleaf [13] = assay: Test Example 4: herbicidal effect by soil treatment (Table 19, symbol M); format: in vivo, velvetleaf (Abutilon theophrasti); details: 320 g/ha
Outline: as §4

barnyard grass [14] = assay: Test Example 5: herbicidal effect by foliage application, plastic box (Table 20, symbol H); format: in vivo, barnyard grass (Echinochloa crus-galli); details: foliage application, 320 g/ha, 3 weeks after application
Outline: as §2

wild oat [15] = assay: Test Example 4: herbicidal effect by soil treatment (Table 19, symbol I); format: in vivo, wild oat (Avena fatua); details: 320 g/ha
Outline: as §4

Japanese bulrush = assay: Test Example 1: herbicidal activity, application before weed generation under submerged conditions (Table 16, symbol B); format: in vivo, Japanese bulrush (Schoenoplectus juncoides); details: 320 g/ha applied herbicide
Outline: as §3

barnyard grass [16] = assay: Test Example 4: herbicidal effect by soil treatment (Table 19, symbol H); format: in vivo, barnyard grass (Echinochloa crus-galli); details: 320 g/ha
Outline: as §4

lambsquarters [17] = assay: Test Example 5: herbicidal effect by foliage application, plastic box (Table 20, symbol O); format: in vivo, lambsquarters (Chenopodium album); details: foliage application, 320 g/ha, 3 weeks after application
Outline: as §2

green foxtail [18] = assay: Test Example 4: herbicidal effect by soil treatment (Table 19, symbol G); format: in vivo, green foxtail (Setaria viridis); details: 320 g/ha
Outline: as §4

redroot pigweed = assay: Test Example 4: herbicidal effect by soil treatment (Table 19, symbol N); format: in vivo, redroot pigweed (Amaranthus retroflexus); details: 320 g/ha
Outline: as §4

barnyard grass [19] = assay: Test Example 3: herbicidal effect by foliage application, Wagner pot (Table 18, symbol H); format: in vivo, barnyard grass (Echinochloa crus-galli); details: 320 g/ha
Outline: as §1

chickweed = assay: Test Example 4: herbicidal effect by soil treatment (Table 19, symbol P); format: in vivo, common chickweed (Stellaria media); details: 320 g/ha
Outline: as §4

Italian ryegrass [20] = assay: Test Example 5: herbicidal effect by foliage application, plastic box (Table 20, symbol K); format: in vivo, Italian ryegrass (Lolium multiflorum); details: foliage application, 320 g/ha, 3 weeks after application
Outline: as §2

persian speedwell [21] = assay: Test Example 4: herbicidal effect by soil treatment (Table 19, symbol R); format: in vivo, Persian speedwell (Veronica persica); details: 320 g/ha
Outline: as §4

Structure (SMILES)	herbicidal effect on D (Chinese sprangletop), rating 0-5 (Chinese sprangletop)	effect on wild oat (I) (wild oat [1])	effect on blackgrass (J) (blackgrass [2])	effect on velvetleaf (M) (velvetleaf [3])	effect on green foxtail (G) (green foxtail [4])	effect on persian speedwell (R) (persian speedwell [5])	Herbicidal effect on C: oval-leafed pondweed (grade 0-5) (oval-leafed pondweed)	herbicidal effect rating, F: southern crabgrass (southern crabgrass [6])	Herbicidal effect on A: late watergrass (grade 0-5) (late watergrass)	herbicidal effect rating, O: lambsquarters (lambsquarters [7])	herbicidal effect rating, L: windgrass (windgrass [8])	herbicidal effect rating, J: blackgrass (blackgrass [9])	herbicidal effect on E (rice flat sedge), rating 0-5 (rice flat sedge)	herbicidal effect rating, K: Italian ryegrass (Italian ryegrass [10])	effect on southern crabgrass (F) (southern crabgrass [11])	effect on windgrass (L) (windgrass [12])	herbicidal effect rating, M: velvetleaf (velvetleaf [13])	effect on barnyard grass (H) (barnyard grass [14])	herbicidal effect rating, I: wild oat (wild oat [15])	Herbicidal effect on B: Japanese bulrush (grade 0-5) (Japanese bulrush)	other results
CCCC(=O)Oc1c(C)nn(C)c(=O)c1-c1c(-c2ccc(C(C)(C)C)cc2)sc2ccc(F)cc12 [2-017]	3 (Herbicidal rate of 40% or more and less than 70%)	0 (Herbicidal rate of 5% or less (almost no effect))	0 (Herbicidal rate of 5% or less (almost no effect))	1 (Herbicidal rate of 5% or more and less than 20%)	1 (Herbicidal rate of 5% or more and less than 20%)	3 (Herbicidal rate of 40% or more and less than 70%)	0 (Herbicidal rate of 5% or less (almost no effect))	0 (Herbicidal rate of 5% or less (almost no effect))	2 (Herbicidal rate of 20% or more and less than 40%)	2 (Herbicidal rate of 20% or more and less than 40%)	0 (Herbicidal rate of 5% or less (almost no effect))	0 (Herbicidal rate of 5% or less (almost no effect))	2 (Herbicidal rate of 20% or more and less than 40%)	0 (Herbicidal rate of 5% or less (almost no effect))	0 (Herbicidal rate of 5% or less (almost no effect))	0 (Herbicidal rate of 5% or less (almost no effect))	0 (Herbicidal rate of 5% or less (almost no effect))	3 (Herbicidal rate of 40% or more and less than 70%)	0 (Herbicidal rate of 5% or less (almost no effect))	0 (Herbicidal rate of 5% or less (almost no effect))	herbicidal effect rating, H: barnyard grass (barnyard grass [16]): 2 (Herbicidal rate of 20% or more and less than 40%); effect on lambsquarters (O) (lambsquarters [17]): 1 (Herbicidal rate of 5% or more and less than 20%); herbicidal effect rating, G: green foxtail (green foxtail [18]): 1 (Herbicidal rate of 5% or more and less than 20%); herbicidal effect rating, N: redroot pigweed (redroot pigweed): 4 (Herbicidal rate of 70% or more and less than 90%); herbicidal effect on H (barnyard grass), rating 0-5 (barnyard grass [19]): 5 (Herbicidal rate of 90% or more (almost completely withered)); herbicidal effect rating, P: chickweed (chickweed): 0 (Herbicidal rate of 5% or less (almost no effect)); effect on Italian ryegrass (K) (Italian ryegrass [20]): 0 (Herbicidal rate of 5% or less (almost no effect)); herbicidal effect rating, R: persian speedwell (persian speedwell [21]): 0 (Herbicidal rate of 5% or less (almost no effect))
Cc1nn(C)c(=O)c(-c2c(-c3ccc(C(F)(F)F)cc3)sc3ccc(F)cc23)c1O [2-020]	3 (Herbicidal rate of 40% or more and less than 70%)	4 (Herbicidal rate of 70% or more and less than 90%)	3 (Herbicidal rate of 40% or more and less than 70%)	5 (Herbicidal rate of 90% or more (almost completely withered))	5 (Herbicidal rate of 90% or more (almost completely withered))	5 (Herbicidal rate of 90% or more (almost completely withered))	0 (Herbicidal rate of 5% or less (almost no effect))	3 (Herbicidal rate of 40% or more and less than 70%)	0 (Herbicidal rate of 5% or less (almost no effect))	5 (Herbicidal rate of 90% or more (almost completely withered))	5 (Herbicidal rate of 90% or more (almost completely withered))	3 (Herbicidal rate of 40% or more and less than 70%)	5 (Herbicidal rate of 90% or more (almost completely withered))	5 (Herbicidal rate of 90% or more (almost completely withered))	5 (Herbicidal rate of 90% or more (almost completely withered))	5 (Herbicidal rate of 90% or more (almost completely withered))	3 (Herbicidal rate of 40% or more and less than 70%)	5 (Herbicidal rate of 90% or more (almost completely withered))	0 (Herbicidal rate of 5% or less (almost no effect))	2 (Herbicidal rate of 20% or more and less than 40%)	herbicidal effect rating, H: barnyard grass (barnyard grass [16]): 2 (Herbicidal rate of 20% or more and less than 40%); effect on lambsquarters (O) (lambsquarters [17]): 5 (Herbicidal rate of 90% or more (almost completely withered)); herbicidal effect rating, G: green foxtail (green foxtail [18]): 4 (Herbicidal rate of 70% or more and less than 90%); herbicidal effect rating, N: redroot pigweed (redroot pigweed): 5 (Herbicidal rate of 90% or more (almost completely withered)); herbicidal effect on H (barnyard grass), rating 0-5 (barnyard grass [19]): 5 (Herbicidal rate of 90% or more (almost completely withered)); herbicidal effect rating, P: chickweed (chickweed): 3 (Herbicidal rate of 40% or more and less than 70%); effect on Italian ryegrass (K) (Italian ryegrass [20]): 5 (Herbicidal rate of 90% or more (almost completely withered)); herbicidal effect rating, R: persian speedwell (persian speedwell [21]): 5 (Herbicidal rate of 90% or more (almost completely withered))
